# Where two headings read alike, the source gives them in different places.
# Assays:
# relapsed/refractory ALL = conditions: https://www.accessdata.fda.gov/drugsatfda_docs/label/2019/021877s010lbl.pdf; cited from earlier work
# [1] = set-up: species or system human; conditions: in vivo; for Time post-dose at which Cmax was observed: human
# [2] = earlier trial of navitoclax in lymphoid malignancies; cited from earlier work
# [3] = for Dose reduction due to TEAEs: 2 patients each; for Discontinuation due to study drug related AEs: all patients; for Drug discontinued due to TEAEs: all patients (venetoclax 11, navitoclax 12 patients)
Compound,Survival (median OS) reported in studies (relapsed/refractory ALL),Time post-dose at which Cmax was observed [1],Dose reduction due to TEAEs [3],Discontinuation due to study drug related AEs [3],Drug discontinued due to TEAEs [3],other results
COc1nc(N)nc2c1ncn2[C@@H]1O[C@H](CO)[C@@H](O)[C@@H]1O [nelarabine],4.7 months,,,,,
blinatumomab: bispecific antibody,7.7 months,,,,,
"CC1(C)CCC(c2ccc(Cl)cc2)=C(CN2CCN(c3ccc(C(=O)NS(=O)(=O)c4ccc(N[C@H](CCN5CCOCC5)CSc5ccccc5)c(S(=O)(=O)C(F)(F)F)c4)cc3)CC2)C1 [Navitoclax, navitoclax]",,4 to 8 h,4.3%,10.6%,25.5%,"Impact on venetoclax pharmacokinetics [1]: no significant impact; Maximum tolerated dose [2]: 325 mg/day; Rate of grade 3/4 thrombocytopenia [2]: 52.7%; Recommended phase II dose (RPTD) ([3]; patients weighing <45 kg, in combination with 400 mg adult-equivalent venetoclax): 25 mg; Recommended phase II dose (RPTD) ([3]; patients weighing ≥45 kg (adults), in combination with 400 mg venetoclax): 50 mg"
"CC1(C)CCC(CN2CCN(c3ccc(C(=O)NS(=O)(=O)c4ccc(NCC5CCOCC5)c([N+](=O)[O-])c4)c(Oc4cnc5[nH]ccc5c4)c3)CC2)=C(c2ccc(Cl)cc2)C1 [Venetoclax, venetoclax]",,6 to 8 h,4.3%,12.8%,23.4%,"Recommended phase II dose ([3]; adult-equivalent, with navitoclax 50 mg (adults) or 25 mg (<45 kg)): 400 mg; Events of laboratory TLS ([3]; quick ramp-up to 400 mg venetoclax): 2 events"
inotuzumab ozogamicin,7.7 months,,,,,

# — article PMC9533326 (Cancer discovery, 2021)
